Laboratory results from patent US7262296B2 (priority 2002, dated 2007).

Legend:
[1] = test system: tip of the tongue of the volunteers; conditions: human, in vivo
tongue = conditions: in vivo; cited from earlier work
[2] = test system: hepatic drug metabolizing enzymes; conditions: rat, in vivo; cited from earlier work

With “3-(4-allyloxy phenyl)-2E-propenoic acid morpholine amide [viii]” the Pungency index [1] was 10^4.

With “3-[(2H)-2,2-dimethyl-3,4-dihydro-benzopyran-6yl]-2E-propenoic acid morpholine amide [ix]” the Pungency index [1] was 10^6.

In the case of O=C(/C=C/C=C/c1ccc2c(c1)OCO2)N1CCCCC1 [A, reference compound], the Pungency index [1] is reported as 10^4.

For COc1cc(CNC(=O)CCCC/C=C/C(C)C)ccc1O [capsaicin], the “heat units (pungency)” value (tongue) is given as 10^7 units.

In the case of COc1ccc(/C=C/C=C/C(=O)N2CCOCC2)cc1 [i, 5-(4-methoxyphenyl)-2E, 4E-pentadienoic acid morpholine amide], the Pungency index [1] is reported as 10^6.

With CC(C)Oc1ccc(/C=C/C=C/C(=O)N2CCOCC2)cc1 [ii, 5-(4-isopropyloxyphenyl)-2E, 4E-pentadienoic acid morpholine amide] the Pungency index [1] was 10^7.

With CC1(C)CCc2cc(/C=C/C=C/C(=O)N3CCOCC3)ccc2O1 [iii, 5-(2H)-2,2-dimethyl-3,4-dihydro-benzopyran-6yl-2E, 4E-pentadienoic acid morpholine amide] the Pungency index [1] was 10^4.

For O=C(/C=C/C=C/c1ccc2c(c1)OCCO2)N1CCOCC1 [iv, 5-(3,4-ethylenedioxyphenyl)-2E, 4E-pentadienoic acid morpholine amide], the Pungency index [1] was 10^4.

In the case of O=C(/C=C/C=C/c1ccc2c(c1)OCO2)N1CCCCC1 [piperine], the “effect on hepatic drug metabolizing enzymes” value [2] is given as “inhibiting their activity”.

With COc1ccc(/C=C/C(=O)N2CCOCC2)cc1 [v, 3-(4-methoxyphenyl)-2E-propenoic acid morpholine amide] the Pungency index [1] was 10^5.

In the case of CC(C)Oc1ccc(/C=C/C(=O)N2CCOCC2)cc1 [vi, 3-(4-isopropyloxyphenyl)-2E-propenoic acid morpholine amide], the Pungency index [1] is reported as 10^6.

For CCCCOc1ccc(/C=C/C(=O)N2CCOCC2)cc1 [vii, 3-(4-butyloxyphenyl)-2E-propenoic acid morpholine amide], the Pungency index [1] was 10^7.

In the case of O=C(/C=C/c1ccc2c(c1)OCCO2)N1CCOCC1 [x, 3-(3,4-ethylenedioxyphenyl)-2E-propenoic acid morpholine amide], the Pungency index [1] is reported as 10^4.
